# Source: patent US9113629B2, “4-amino-6-(4-substituted-phenyl)-picolinates and 6-amino-2-(4-substituted-phenyl)-pyrimidine-4-carboxylates and their use as herbicides” (DOW AGROSCIENCES LLC, priority 2013, dated 2015)
# Tested on: not listed separately
# Assay: Post-emergent Test III, herbicidal activity in wheat and barley
# Type: in vivo, Lolium multiflorum, Lolium rigidum
# Conditions: Lolium multiflorum, post-emergence, 504 h; Table 9; 35 g ai/ha; post-emergent; 21 d; read-out: Visual Growth Reduction (%) 21 Days After Application LOLSS
# Procedure, shortened: (§1)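 Plants at the second to third true-leaf stage, grown in a greenhouse at about 18/17 °C with a 14 h photoperiod, were sprayed post-emergence at 187 L/ha with the high rate and ½× to 1/16× serial dilutions in an acetone/DMSO/crop-oil/surfactant carrier. Injury was rated visually at 21 d on a 0–100% scale, and GR20–GR90 were derived by probit analysis.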
row,Structure (SMILES),pest or weed control at 35 g/ha [%]
1,Nc1c(Cl)c(C(=O)O)nc(-c2ccc(C(F)(F)F)c(F)c2)c1Cl [Compound 146],0 to 29
2,C=Cc1c(C(=O)O)nc(-c2ccc(C#N)cc2)c(F)c1N [Compound 150],0 to 29

# Same assay, conditions: Lolium multiflorum, post-emergence, 504 h; Table 9; 70 g ai/ha; post-emergent; 21 d; read-out: Visual Growth Reduction (%) 21 Days After Application LOLSS
row,Structure (SMILES),pest or weed control at 70 g/ha [%]
1,Nc1c(Cl)c(C(=O)O)nc(-c2ccc(C(F)(F)F)c(F)c2)c1Cl [Compound 146],0 to 29
2,C=Cc1c(C(=O)O)nc(-c2ccc(C#N)cc2)c(F)c1N [Compound 150],0 to 29

# Same assay, conditions: Lolium multiflorum, post-emergence, 504 h; Table 9; 140 g ai/ha; post-emergent; 21 d; read-out: Visual Growth Reduction (%) 21 Days After Application LOLSS
row,Structure (SMILES),pest or weed control at 140 g/ha [%]
1,Nc1c(Cl)c(C(=O)O)nc(-c2ccc(C(F)(F)F)c(F)c2)c1Cl [Compound 146],0 to 29

# Tested on: APESV: bentgrass (Apera spica-venti)
# Assay: as above
# Type: in vivo
# Conditions: Apera spica-venti, post-emergence, 504 h; Table 9; 35 g ai/ha; post-emergent; 21 d; read-out: Visual Growth Reduction (%) 21 Days After Application APESV
# Procedure, shortened: as §1
row,Structure (SMILES),pest or weed control at 35 g/ha [%]
1,Nc1c(Cl)c(C(=O)O)nc(-c2ccc(C(F)(F)F)c(F)c2)c1Cl [Compound 146],95 to 100
2,C=Cc1c(C(=O)O)nc(-c2ccc(C#N)cc2)c(F)c1N [Compound 150],0 to 29

# Same assay, conditions: Apera spica-venti, post-emergence, 504 h; Table 9; 70 g ai/ha; post-emergent; 21 d; read-out: Visual Growth Reduction (%) 21 Days After Application APESV
row,Structure (SMILES),pest or weed control at 70 g/ha [%]
1,Nc1c(Cl)c(C(=O)O)nc(-c2ccc(C(F)(F)F)c(F)c2)c1Cl [Compound 146],95 to 100
2,C=Cc1c(C(=O)O)nc(-c2ccc(C#N)cc2)c(F)c1N [Compound 150],0 to 29

# Same assay, conditions: Apera spica-venti, post-emergence, 504 h; Table 9; 140 g ai/ha; post-emergent; 21 d; read-out: Visual Growth Reduction (%) 21 Days After Application APESV
row,Structure (SMILES),pest or weed control at 140 g/ha [%]
1,Nc1c(Cl)c(C(=O)O)nc(-c2ccc(C(F)(F)F)c(F)c2)c1Cl [Compound 146],95 to 100

# Same assay, conditions: Table 9; dose for 50 percent growth reduction, probit analysis; 21 d
row,Structure (SMILES),GR50 APESV [g ai/ha]
1,Nc1c(Cl)c(C(=O)O)nc(-c2ccc(C(F)(F)F)c(F)c2)c1Cl [Compound 146],23
2,C=Cc1c(C(=O)O)nc(-c2ccc(C#N)cc2)c(F)c1N [Compound 150],>140

# Same assay, conditions: Table 9; dose for 80 percent growth reduction, probit analysis; 21 d
row,Structure (SMILES),GR80 APESV [g ai/ha]
1,Nc1c(Cl)c(C(=O)O)nc(-c2ccc(C(F)(F)F)c(F)c2)c1Cl [Compound 146],34
2,C=Cc1c(C(=O)O)nc(-c2ccc(C#N)cc2)c(F)c1N [Compound 150],>140

# Tested on: HORSS: barley, including spring and winter (Hordeum vulgare)
# Assay: as above
# Type: in vivo
# Conditions: Hordeum vulgare, post-emergence, 504 h; Table 9; 35 g ai/ha; post-emergent; 21 d; read-out: Visual Growth Reduction (%) 21 Days After Application HORSS
# Procedure, shortened: as §1
row,Structure (SMILES),pest or weed control at 35 g/ha [%]
1,Nc1c(Cl)c(C(=O)O)nc(-c2ccc(C(F)(F)F)c(F)c2)c1Cl [Compound 146],75 to 84
2,C=Cc1c(C(=O)O)nc(-c2ccc(C#N)cc2)c(F)c1N [Compound 150],30 to 44

# Same assay, conditions: Hordeum vulgare, post-emergence, 504 h; Table 9; 70 g ai/ha; post-emergent; 21 d; read-out: Visual Growth Reduction (%) 21 Days After Application HORSS
row,Structure (SMILES),pest or weed control at 70 g/ha [%]
1,Nc1c(Cl)c(C(=O)O)nc(-c2ccc(C(F)(F)F)c(F)c2)c1Cl [Compound 146],85 to 94
2,C=Cc1c(C(=O)O)nc(-c2ccc(C#N)cc2)c(F)c1N [Compound 150],45 to 59

# Same assay, conditions: Hordeum vulgare, post-emergence, 504 h; Table 9; 140 g ai/ha; post-emergent; 21 d; read-out: Visual Growth Reduction (%) 21 Days After Application HORSS
row,Structure (SMILES),pest or weed control at 140 g/ha [%]
1,Nc1c(Cl)c(C(=O)O)nc(-c2ccc(C(F)(F)F)c(F)c2)c1Cl [Compound 146],95 to 100

# Same assay, conditions: Table 9; dose for 20 percent growth reduction, probit analysis; 21 d
row,Structure (SMILES),GR20 HORSS [g ai/ha]
1,Nc1c(Cl)c(C(=O)O)nc(-c2ccc(C(F)(F)F)c(F)c2)c1Cl [Compound 146],1
2,C=Cc1c(C(=O)O)nc(-c2ccc(C#N)cc2)c(F)c1N [Compound 150],8

# Tested on: KCHSC: kochia (Kochia scoparia)
# Assay: as above
# Type: in vivo
# Conditions: Bassia scoparia, post-emergence, 504 h; Table 9; 35 g ai/ha; post-emergent; 21 d; read-out: Visual Growth Reduction (%) 21 Days After Application KCHSC
# Procedure, shortened: as §1
row,Structure (SMILES),pest or weed control at 35 g/ha [%]
1,Nc1c(Cl)c(C(=O)O)nc(-c2ccc(C(F)(F)F)c(F)c2)c1Cl [Compound 146],0 to 29
2,C=Cc1c(C(=O)O)nc(-c2ccc(C#N)cc2)c(F)c1N [Compound 150],60 to 74

# Same assay, conditions: Bassia scoparia, post-emergence, 504 h; Table 9; 70 g ai/ha; post-emergent; 21 d; read-out: Visual Growth Reduction (%) 21 Days After Application KCHSC
row,Structure (SMILES),pest or weed control at 70 g/ha [%]
1,Nc1c(Cl)c(C(=O)O)nc(-c2ccc(C(F)(F)F)c(F)c2)c1Cl [Compound 146],0 to 29
2,C=Cc1c(C(=O)O)nc(-c2ccc(C#N)cc2)c(F)c1N [Compound 150],60 to 74

# Same assay, conditions: Bassia scoparia, post-emergence, 504 h; Table 9; 140 g ai/ha; post-emergent; 21 d; read-out: Visual Growth Reduction (%) 21 Days After Application KCHSC
row,Structure (SMILES),pest or weed control at 140 g/ha [%]
1,Nc1c(Cl)c(C(=O)O)nc(-c2ccc(C(F)(F)F)c(F)c2)c1Cl [Compound 146],0 to 29

# Same assay, conditions: Table 9; dose for 50 percent growth reduction, probit analysis; 21 d
row,Structure (SMILES),GR50 KCHSC [g ai/ha]
1,Nc1c(Cl)c(C(=O)O)nc(-c2ccc(C(F)(F)F)c(F)c2)c1Cl [Compound 146],>140
2,C=Cc1c(C(=O)O)nc(-c2ccc(C#N)cc2)c(F)c1N [Compound 150],7

# Same assay, conditions: Table 9; dose for 80 percent growth reduction, probit analysis; 21 d
row,Structure (SMILES),GR80 KCHSC [g ai/ha]
1,Nc1c(Cl)c(C(=O)O)nc(-c2ccc(C(F)(F)F)c(F)c2)c1Cl [Compound 146],>140
2,C=Cc1c(C(=O)O)nc(-c2ccc(C#N)cc2)c(F)c1N [Compound 150],>140

# Tested on: LOLSS: ryegrass including, Italian ryegrass (Lolium multiflorum), rigid ryegrass (Lolium rigidum), annual ryegrass (Lolium multiflorum subsp. Gaudini)
# Assay: as above
# Type: in vivo
# Conditions: Table 9; dose for 50 percent growth reduction, probit analysis; 21 d
# Procedure, shortened: as §1
row,Structure (SMILES),GR50 LOLSS [g ai/ha]
1,Nc1c(Cl)c(C(=O)O)nc(-c2ccc(C(F)(F)F)c(F)c2)c1Cl [Compound 146],>140
2,C=Cc1c(C(=O)O)nc(-c2ccc(C#N)cc2)c(F)c1N [Compound 150],>140

# Same assay, conditions: Table 9; dose for 80 percent growth reduction, probit analysis; 21 d
row,Structure (SMILES),GR80 LOLSS [g ai/ha]
1,Nc1c(Cl)c(C(=O)O)nc(-c2ccc(C(F)(F)F)c(F)c2)c1Cl [Compound 146],>140
2,C=Cc1c(C(=O)O)nc(-c2ccc(C#N)cc2)c(F)c1N [Compound 150],>140

# Tested on: SETVI: green foxtail (Setaria viridis)
# Assay: as above
# Type: in vivo
# Conditions: Setaria viridis, post-emergence, 504 h; Table 9; 35 g ai/ha; post-emergent; 21 d; read-out: Visual Growth Reduction (%) 21 Days After Application SETVI
# Procedure, shortened: as §1
row,Structure (SMILES),pest or weed control at 35 g/ha [%]
1,Nc1c(Cl)c(C(=O)O)nc(-c2ccc(C(F)(F)F)c(F)c2)c1Cl [Compound 146],45 to 59
2,C=Cc1c(C(=O)O)nc(-c2ccc(C#N)cc2)c(F)c1N [Compound 150],0 to 29

# Same assay, conditions: Setaria viridis, post-emergence, 504 h; Table 9; 70 g ai/ha; post-emergent; 21 d; read-out: Visual Growth Reduction (%) 21 Days After Application SETVI
row,Structure (SMILES),pest or weed control at 70 g/ha [%]
1,Nc1c(Cl)c(C(=O)O)nc(-c2ccc(C(F)(F)F)c(F)c2)c1Cl [Compound 146],75 to 84
2,C=Cc1c(C(=O)O)nc(-c2ccc(C#N)cc2)c(F)c1N [Compound 150],30 to 44

# Same assay, conditions: Setaria viridis, post-emergence, 504 h; Table 9; 140 g ai/ha; post-emergent; 21 d; read-out: Visual Growth Reduction (%) 21 Days After Application SETVI
row,Structure (SMILES),pest or weed control at 140 g/ha [%]
1,Nc1c(Cl)c(C(=O)O)nc(-c2ccc(C(F)(F)F)c(F)c2)c1Cl [Compound 146],95 to 100

# Same assay, conditions: Table 9; dose for 50 percent growth reduction, probit analysis; 21 d
row,Structure (SMILES),GR50 SETVI [g ai/ha]
1,Nc1c(Cl)c(C(=O)O)nc(-c2ccc(C(F)(F)F)c(F)c2)c1Cl [Compound 146],41
2,C=Cc1c(C(=O)O)nc(-c2ccc(C#N)cc2)c(F)c1N [Compound 150],79

# Same assay, conditions: Table 9; dose for 80 percent growth reduction, probit analysis; 21 d
row,Structure (SMILES),GR80 SETVI [g ai/ha]
1,Nc1c(Cl)c(C(=O)O)nc(-c2ccc(C(F)(F)F)c(F)c2)c1Cl [Compound 146],76
2,C=Cc1c(C(=O)O)nc(-c2ccc(C#N)cc2)c(F)c1N [Compound 150],>140

# Tested on: TRZSS: wheat, including spring and winter (Triticum aestivum)
# Assay: as above
# Type: in vivo
# Conditions: Table 9; dose for 20 percent growth reduction, probit analysis; 21 d
# Procedure, shortened: as §1
row,Structure (SMILES),GR20 TRZSS [g ai/ha]
1,Nc1c(Cl)c(C(=O)O)nc(-c2ccc(C(F)(F)F)c(F)c2)c1Cl [Compound 146],1
2,C=Cc1c(C(=O)O)nc(-c2ccc(C#N)cc2)c(F)c1N [Compound 150],1

# Same assay, conditions: Triticum aestivum, post-emergence, 504 h; Table 9; 35 g ai/ha; post-emergent; 21 d; read-out: Visual Growth Reduction (%) 21 Days After Application TRZSS
row,Structure (SMILES),pest or weed control at 35 g/ha [%]
1,Nc1c(Cl)c(C(=O)O)nc(-c2ccc(C(F)(F)F)c(F)c2)c1Cl [Compound 146],75 to 84
2,C=Cc1c(C(=O)O)nc(-c2ccc(C#N)cc2)c(F)c1N [Compound 150],60 to 74

# Same assay, conditions: Triticum aestivum, post-emergence, 504 h; Table 9; 70 g ai/ha; post-emergent; 21 d; read-out: Visual Growth Reduction (%) 21 Days After Application TRZSS
row,Structure (SMILES),pest or weed control at 70 g/ha [%]
1,Nc1c(Cl)c(C(=O)O)nc(-c2ccc(C(F)(F)F)c(F)c2)c1Cl [Compound 146],85 to 94
2,C=Cc1c(C(=O)O)nc(-c2ccc(C#N)cc2)c(F)c1N [Compound 150],60 to 74

# Same assay, conditions: Triticum aestivum, post-emergence, 504 h; Table 9; 140 g ai/ha; post-emergent; 21 d; read-out: Visual Growth Reduction (%) 21 Days After Application TRZSS
row,Structure (SMILES),pest or weed control at 140 g/ha [%]
1,Nc1c(Cl)c(C(=O)O)nc(-c2ccc(C(F)(F)F)c(F)c2)c1Cl [Compound 146],85 to 94
